Test results from patent publication US9931346B2, “Serotonin-norepinephrine reuptake inhibitors (SNRIs) and Sigma receptor ligands combinations” (LABORATORIOS DEL DR. ESTEVE S.A., priority 2013, dated 2018).
Structures can show the parent of a compound that is named as a salt.

System: mechanical allodynia of the post-operative pain model
Assay: Mechanical allodynia (von Frey filaments) in the post-operative pain model (plantar incision) in rats
Format: in vivo
Protocol: The induction of anesthesia in rats was performed with 3% isofluran for veterinary use, employing an Ohmeda vaporizer and an anesthesia chamber. Anesthesia was kept during the surgical operation by a tube which directs the isofluran vapors to the animal's snout. Once the rats were anesthetized, they were laid down in a prone position and their right hind paws were cleaned out with alcohol.
Then, a skin incision in the hindpaw of about 10 mm was made by means of a scalpel, starting about 5 mm from the heel and extending toward the toes. Fascia was located and by means of curve scissors muscle was elevated and a longitudinal incision of about 5 mm was made, thus the muscle origin and insertion remained intact. The skin of the paw was stitched with a suturing stitch with breaded silk (3.0) and the wound was cleaned out with povidone.
The assessment was performed 30 minutes after the administration of product and always 4 hours after the plantar incision. The analysis was carried out evaluating the mechanical allodynia. It was tested using von Frey filaments: Animals were placed in methacrylate cylinders on an elevated surface, with metallic mesh floor perforated in order to apply the filaments. After an acclimation period of about 30 minutes within the cylinders, both hindpaws were stimulated (the injured and the non-injured paw, serving the latter as control), starting with the lowest force filament (0.4 g) and reaching a 15 g filament. The animal's response to pain was manifested by the withdrawal of the paw as a consequence of the painful stimulus caused by a filament.
(§1) The efficacy of the combined use of venlafaxine and compound 63.HCl was tested at different doses of compound 63.HCl (5, 10, 20, 40 and 80 mg/kg), while the venlafaxine dose remained constant (2.5 mg/kg). The administrations were performed 3.5 hours after surgery. The treated subjects were tested according to the mechanical allodynia protocol above (FIG. 1).
as §1, with “duloxetine” for “venlafaxine”, “(10,” for “(5, 10,”, “(0.625” for “(2.5”, “2).” for “1).”

Structure (SMILES): CNCC[C@H](Oc1cccc2ccccc12)c1cccs1 [Duloxetine, duloxetine]
- effect on mechanical allodynia (analgesia) (FIG. 2, Duloxetine alone, sub-active dose 0.625 mg/kg): non-significant effect

Structure (SMILES): COc1ccc(C(CN(C)C)C2(O)CCCCC2)cc1 (stereo not shown) [Venlafaxine, venlafaxine]
- effect on mechanical allodynia (analgesia) (FIG. 1, Venlafaxine alone, sub-active dose 2.5 mg/kg): non-significant effect

Structure (SMILES): Cc1cc(OCCN2CCOCC2)nn1-c1ccc2ccccc2c1 [compound 63.HCl, 4-{2-[5-Methyl-1-(naphthalen-2-yl)-1H-pyrazol-3-yloxy]ethyl}morpholine hydrochloride]
- maximum effect (analgesia, mechanical allodynia) (FIG. 1, compound 63.HCl alone, 5-80 mg/kg, assessed 30 min after administration, 4 h after plantar incision): 43%
- ED50 (Rattus norvegicus, FIG. 2, compound 63.HCl alone, 10-80 mg/kg, read-out: ED50 (analgesia, mechanical allodynia)): 40 mg/kg
